Results from ChEMBL document CHEMBL3779785, “1,3,4-Oxadiazole derivatives as potential antitumor agents: discovery, optimization and biological activity valuation” (Medchemcomm, 2016).

What was measured:
HeLa [1] = test: Antiproliferative activity against human HeLa cells after 24 hrs by MTT assay
MCF7 = test: Antiproliferative activity against human MCF7 cells after 24 hrs by MTT assay; settings: MCF7, 24 h
HepG2 = test: Antiproliferative activity against human HepG2 cells after 24 hrs by MTT assay; settings: HepG2, 24 h
[2] = Cytotoxicity against human macrophages assessed as cell growth inhibition; assay type: cell-based, Macrophage
HeLa [3] = test: Induction of apoptosis in human HeLa cells assessed as late apoptotic cells at 10 uM after 24 hrs by Annexin V FITC/propidium iodide staining based flow cytometric analysis (reference value: 10.17 %); assay type: functional
HeLa [4] = test: Induction of apoptosis in human HeLa cells assessed as late apoptotic cells at 50 uM after 24 hrs by Annexin V FITC/propidium iodide staining based flow cytometric analysis (reference value: 10.17 %); assay type: functional
HeLa [5] = test: Induction of apoptosis in human HeLa cells assessed as early apoptotic cells at 50 uM after 24 hrs by Annexin V FITC/propidium iodide staining based flow cytometric analysis (reference value: 8.45 %); assay type: functional
HeLa [6] = test: Induction of apoptosis in human HeLa cells assessed as early apoptotic cells at 10 uM after 24 hrs by Annexin V FITC/propidium iodide staining based flow cytometric analysis (reference value: 8.45 %); assay type: functional
HeLa [7] = test: Induction of apoptosis in human HeLa cells assessed as early apoptotic cells at 2 uM after 24 hrs by Annexin V FITC/propidium iodide staining based flow cytometric analysis (reference value: 8.45 %); assay type: functional
HeLa [8] = test: Induction of apoptosis in human HeLa cells assessed as late apoptotic cells at 2 uM after 24 hrs by Annexin V FITC/propidium iodide staining based flow cytometric analysis (reference value: 10.17 %); assay type: functional
HeLa [9] = test: Induction of apoptosis in human HeLa cells assessed as early apoptotic cells after 24 hrs by Annexin V FITC/propidium iodide staining based flow cytometric analysis; assay type: functional, cell-based
HeLa [10] = test: Induction of apoptosis in human HeLa cells assessed as late apoptotic cells after 24 hrs by Annexin V FITC/propidium iodide staining based flow cytometric analysis; assay type: functional, cell-based

Row | IC50 (HeLa [1]) [µM] | IC50 (MCF7) [µM] | IC50 (HepG2) [µM] | SMILES | CC50 [2] [µM] | Activity (HeLa [3]) [%] | Activity (HeLa [4]) [%] | Activity (HeLa [5]) [%] | Activity (HeLa [6]) [%] | Activity (HeLa [7]) [%] | Activity (HeLa [8]) [%] | Activity (HeLa [9]) | Activity (HeLa [10])
1 | 167 | 258 | 369 | c1ccc(Cc2nnc(Cn3nnc4ccccc43)o2)cc1 | > 100 | – | – | – | – | – | – | – | –
2 | 198 | 277 | 357 | Brc1ccc(Cc2nnc(Cn3nnc4ccccc43)o2)cc1 | > 100 | – | – | – | – | – | – | – | –
3 | 157 | 253 | 367 | O=[N+]([O-])c1ccc(Cc2nnc(Cn3nnc4ccccc43)o2)cc1 | > 100 | – | – | – | – | – | – | – | –
4 | 123 | 241 | 350 | COc1cccc(Cc2nnc(Cn3nnc4ccccc43)o2)c1 | > 100 | – | – | – | – | – | – | – | –
5 | 243 | 370 | 476 | COc1cccc(-c2nnc(Cn3nnc4ccccc43)o2)c1 | > 100 | – | – | – | – | – | – | – | –
6 | 269 | 376 | 477 | COc1ccc(-c2nnc(Cn3nnc4ccccc43)o2)cc1 | > 100 | – | – | – | – | – | – | – | –
7 | 150 | 251 | 357 | COc1ccc(Cc2nnc(Cn3nnc4ccccc43)o2)cc1 | > 100 | – | – | – | – | – | – | – | –
8 | 11 | 15 | 334 | COc1ccccc1Cc1nnc(Cn2nnc3ccccc32)o1 | > 100 | 20.79 | 35.86 | 36.18 | 23.57 | 9.86 | 19.6 | Dose-dependent effect | Dose-dependent effect
9 | 301 | 382 | 488 | Brc1cccc(-c2nnc(Cn3nnc4ccccc43)o2)c1 | > 100 | – | – | – | – | – | – | – | –
10 | 182 | 269 | 398 | Brc1cccc(Cc2nnc(Cn3nnc4ccccc43)o2)c1 | > 100 | – | – | – | – | – | – | – | –
11 | 230 | 292 | 401 | Clc1cccc(Cc2nnc(Cn3nnc4ccccc43)o2)c1 | > 100 | – | – | – | – | – | – | – | –
12 | 216 | 331 | 452 | COc1ccccc1-c1nnc(Cn2nnc3ccccc32)o1 | > 100 | – | – | – | – | – | – | – | –
13 | 332 | 398 | 451 | Fc1cccc(-c2nnc(Cn3nnc4ccccc43)o2)c1 | > 100 | – | – | – | – | – | – | – | –
14 | 237 | 357 | 368 | Fc1cccc(Cc2nnc(Cn3nnc4ccccc43)o2)c1 | > 100 | – | – | – | – | – | – | – | –
15 | 305 | 387 | 438 | Brc1ccc(-c2nnc(Cn3nnc4ccccc43)o2)cc1 | > 100 | – | – | – | – | – | – | – | –
16 | 327 | 390 | 440 | Clc1cccc(-c2nnc(Cn3nnc4ccccc43)o2)c1 | > 100 | – | – | – | – | – | – | – | –
17 | 299 | 13 | 483 | O=[N+]([O-])c1ccc(-c2nnc(Cn3nnc4ccccc43)o2)cc1 | > 100 | – | – | – | – | – | – | – | –
